Literature values, collected in patent US20040191345A1, “New formulations and use thereof” (priority 2003, published 2004).

Tests used:
[1] = at room temperature
[2] = n-octanol / phosphate buffer at pH 7.32

- solubility in water [1]: about 11 mg/ml
- pKa value: 9.87
- partition coefficient (Log P) [2]: 1.83
Structure (SMILES): Cc1ccc(O)c(C(CCN(C(C)C)C(C)C)c2ccccc2)c1 (stereo not drawn) [Tolterodine, N,N-diiso-propyl-3-(2-hydroxy-5-methylphenyl)-3-phenylpropanamine]
